Measurements as given in patent US6716809B1, “Mage-A3 peptides presented by HLA class molecules” (priority 1997, dated 2004).

What was measured:
LB1158 CD4+ clone 22 = assay: IFN-γ production by CD4+ clone 22 stimulated with peptide- or protein-pulsed EBV-B cells; assay type: cell-based, human; conditions: for IFN-γ production by clone 22: HLA-DR13 EBV-B cells; for recognition of short peptide by clone 22: conclusion from Table V
Method: (§1) In order to confirm the efficacy of this protocol, dendritic cells were fed with the MAGE-3 protein, using conditions described above, to stimulate autologous CD4^+ T lymphocytes from hemochromatosis patient LB1158 or from melanoma patient 7002. After four restimulations, the specific production of IFN-γ by an aliquot of each of the microcultures stimulated with the autologous EBV-B cells loaded with MAGE-A3 were tested on day 35 for patient LB1158 and day 37 for patient 7002. For each individual, one positive microculture was cloned using autologous EBV-B cells as stimulating cells, either retrotransduced with MFG Ii MAGE-A3 for LB1158, or fed with protein MAGE-A3 for patient 7002. […] Specifically, autologous EBV-B cells were incubated for 20 h in the presence of 20 μg/ml of recombinant His-MAGE-A3 protein. Clone 22 (2500 cells) was incubated overnight with 5000 MAGE-A3 loaded EBV-B cells in round botton microwells in the presence or absence of monoclonal antibodies which recognize HLA-A,B,C (W6/32) or HLA-DR (2B6). IFN-γ secretion was measured after 20 h by ELISA (FIG. 15A).
(§2) Peptides corresponding to parts of MAGE-A3 (e.g., MAGE107-122, MAGE111-126, MAGE115-130, MAGE119-134) were tested for recognition by clone 2 and 22. HLA-DR13 EBV-B cells were pulsed for 2 h with different concentrations of these peptides. Clones 2 and 37 (2500 cells) were incubated with 5000 peptide pulsed cells in round-bottomed microwells for 20 h and assayed for IFN-γ production.
(§3) Autologous or allogeneic EBV-B cells were pulsed for 2 h with 1 μg/ml MAGE-A3119-134 peptide, and then washed. Clones 2 or 22 were incubated with 5000 peptide-pulsed EBV-B cells in round-bottomed microwells for 20 h and the clones' reactivity to the EBV-B cells was measured by ELISA as IFN-γ secretion. Experiments were performed in triplicate.
(§4) Unlike HLA-class I-restricted peptides, class II-restricted peptides usually vary in length and tolerate extensions at both the amino and carboxy termini, because they are not fixed by their ends in the groove. It is therefore difficult to define precisely the length of the antigenic peptide. Therefore a large number of MAGE-A3 peptides were tested at different concentrations (Tables IV and V). […] 2500 cells of clone 37 were then cocultured for 20 h in round-bottomed microwells with 5000 peptide-pulsed cells. IFN-γ released in the supernatant of the cocultures was measured in an ELISA assay. The experiments were performed in triplicate. […] Clones 2 and 22 (2500 cells) were then cocultured for 20 h in round-bottomed microwells with 5000 peptide-pulsed cells. IFN-γ released in the supernatant of the cocultures was measured in an ELISA assay. The experiments was performed twice in duplicates.

7002 CD4+ clone 2 = assay: IFN-γ production by CD4+ clone 2 stimulated with peptide- or protein-pulsed EBV-B cells; assay type: cell-based, human; conditions: for IFN-γ production by clone 2: HLA-DR13 EBV-B cells; for recognition of short peptide by clone 2: conclusion from Table V
Method: as §1, §2, §3, §4

[1] = peptide concentration 100 ng/ml
[2] = peptide concentration 300 ng/ml
[3] = peptide concentration 1000 ng/ml

| Sequence | IFN-γ production by clone 22 (LB1158 CD4+ clone 22; peptide concentration 1 ng/ml) | IFN-γ production by clone 22 (LB1158 CD4+ clone 22; peptide concentration 3 ng/ml) | IFN-γ production by clone 22 (LB1158 CD4+ clone 22; peptide concentration 10 ng/ml) | IFN-γ production by clone 22 (LB1158 CD4+ clone 22; peptide concentration 30 ng/ml) | IFN-γ production by clone 22 (LB1158 CD4+ clone 22; [1]) | IFN-γ production by clone 22 (LB1158 CD4+ clone 22; [2]) | IFN-γ production by clone 22 (LB1158 CD4+ clone 22; [3]) | IFN-γ production by clone 2 (7002 CD4+ clone 2; peptide concentration 1 ng/ml) | IFN-γ production by clone 2 (7002 CD4+ clone 2; peptide concentration 3 ng/ml) | IFN-γ production by clone 2 (7002 CD4+ clone 2; peptide concentration 10 ng/ml) | IFN-γ production by clone 2 (7002 CD4+ clone 2; peptide concentration 30 ng/ml) | IFN-γ production by clone 2 (7002 CD4+ clone 2; [1]) | IFN-γ production by clone 2 (7002 CD4+ clone 2; [2]) | IFN-γ production by clone 2 (7002 CD4+ clone 2; [3]) | recognition of short peptide by clone 22 (LB1158 CD4+ clone 22) | recognition of short peptide by clone 2 (7002 CD4+ clone 2) |
| --- | --- | --- | --- | --- | --- | --- | --- | --- | --- | --- | --- | --- | --- | --- | --- | --- |
| LKYRAREPVTKAE (listed as Homo sapiens) | 0 pg/mL | 25 pg/mL | 223 pg/mL | 567 pg/mL | 1029 pg/mL | 1475 pg/mL | 2004 pg/mL | 0 pg/mL | 0 pg/mL | 79 pg/mL | 386 pg/mL | 1324 pg/mL | 2544 pg/mL | 2755 pg/mL | – | – |
| LLKYRAREPVTKAE (listed as Homo sapiens) | 262 pg/mL | 638 pg/mL | 1073 pg/mL | 1651 pg/mL | 1736 pg/mL | 1826 pg/mL | 2225 pg/mL | 40 pg/mL | 303 pg/mL | 1419 pg/mL | 2012 pg/mL | 2918 pg/mL | 3186 pg/mL | 3078 pg/mL | well recognized | well recognized |
| FLLLKYRAREP (listed as Homo sapiens) | 0 pg/mL | 0 pg/mL | 1 pg/mL | 7 pg/mL | 6 pg/mL | 7 pg/mL | 30 pg/mL | 0 pg/mL | 0 pg/mL | 0 pg/mL | 0 pg/mL | 85 pg/mL | 0 pg/mL | 23 pg/mL | – | – |
| FLLLKYRAREPVT (listed as Homo sapiens) | 291 pg/mL | 584 pg/mL | 1099 pg/mL | 1635 pg/mL | 1510 pg/mL | 1834 pg/mL | 2183 pg/mL | 114 pg/mL | 370 pg/mL | 1437 pg/mL | 2003 pg/mL | 2951 pg/mL | 2860 pg/mL | 3079 pg/mL | well recognized | well recognized |
